For four molecules, carcinogen call results are on record in PubChem BioAssay AID1259411 (Chemical Carcinogenesis Research Information System (CCRIS), 2018).

Active and inactive are the calls of the source. How the calls were made is not given here.

For this data set, the system named is rodent carcinogenicity bioassays, tumor incidence. Briefly: CCRIS carcinogenicity studies. In short, it runs like this:
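NCI-built, expert-reviewed records of carcinogenicity and related test outcomes (mutagenicity, tumor promotion/inhibition) compiled from published and report sources, historical span 1985-2011, not updated.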

In the case of `O=c1ccc2ccccc2o1`, the carcinogen call (Species: MOUSE, Strain/Sex: B6C3F1/FEMALE, Route: GAVAGE, Dose: 0, 50, 100, 200 MG/KG BW IN CORN OIL 1/D 5 D/WK FOR 103 WK (STUDY DURATION: 103 WK), Dose: 0, 50, 100, 200 MG/KG BW IN CORN OIL 1/D 5 D/WK FOR 103 WK (STUDY DURATION: 103 WK), Tumor Site: Type of Lesion: LIVER: HEPATOCELLULAR ADENOMA, HEPATOCELLULAR ADENOMA OR CARCINOMA, LUNG: ALVEOLAR/BRONCHIOLAR ADENOMA, ALVEOLAR/BRONCHI) was “active; positive”; the carcinogen call (Species: MOUSE, Strain/Sex: B6C3F1/MALE, Route: GAVAGE, Dose: 0, 50, 100, 200 MG/KG BW IN CORN OIL 1/D 5 D/WK FOR 103 WK (STUDY DURATION: 103 WK), Dose: 0, 50, 100, 200 MG/KG BW IN CORN OIL 1/D 5 D/WK FOR 103 WK (STUDY DURATION: 103 WK), Tumor Site: Type of Lesion: LUNG: ALVEOLAR/BRONCHIOLAR ADENOMA, ALVEOLAR/BRONCHIOLAR ADENOMA OR CARCINOMA) was “active; positive”; the carcinogen call (Species: MOUSE, Strain/Sex: CD-1/FEMALE, Route: ORAL, Dose: 0, 300, 1000, 3000 PPM IN DIET FOR THE DURATION OF STUDY (STUDY DURATION: 109 WK), Dose: 0, 300, 1000, 3000 PPM IN DIET FOR THE DURATION OF STUDY (STUDY DURATION: 109 WK)) was “inactive; negative”; the carcinogen call (Species: MOUSE, Strain/Sex: CD-1/MALE, Route: ORAL, Dose: 0, 300, 1000, 3000 PPM IN DIET FOR THE DURATION OF STUDY (STUDY DURATION: 101 WK), Dose: 0, 300, 1000, 3000 PPM IN DIET FOR THE DURATION OF STUDY (STUDY DURATION: 101 WK)) is “inactive; negative”; the carcinogen call (Species: RAT, Route: ORAL, Tumor Site: Type of Lesion: BILE DUCT) was “active; positive”; the carcinogen call (Species: RAT, Strain/Sex: F344/FEMALE, Route: GAVAGE, Dose: 0, 25, 50, 100 MG/KG BW IN CORN OIL 1/D 5 D/WK FOR 103 WK (STUDY DURATION: 103 WK), Dose: 0, 25, 50, 100 MG/KG BW IN CORN OIL 1/D 5 D/WK FOR 103 WK (STUDY DURATION: 103 WK), Tumor Site: Type of Lesion: KIDNEY (RENAL TUBULE): ADENOMA) is reported as “equivocal”. In addition, the carcinogen call is “active; positive” (Species: RAT, Strain/Sex: F344/MALE, Route: GAVAGE, Dose: 0, 25, 50, 100 MG/KG BW IN CORN OIL 1/D 5 D/WK FOR 103 WK (STUDY DURATION: 103 WK), Dose: 0, 25, 50, 100 MG/KG BW IN CORN OIL 1/D 5 D/WK FOR 103 WK (STUDY DURATION: 103 WK), Tumor Site: Type of Lesion: KIDNEY (RENAL TUBULE): ADENOMA); “active; positive” (Species: RAT, Strain/Sex: SPRAGUE-DAWLEY/FEMALE, Route: ORAL, Dose: 0, 333, 1000, 2000 PPM IN DIET FOR DURATION OF STUDY ADMINISTERED TO RATS EXPOSED TO THE SAME DOSES DURING GESTATION AND, Dose: 0, 333, 1000, 2000 PPM IN DIET FOR DURATION OF STUDY ADMINISTERED TO RATS EXPOSED TO THE SAME DOSES DURING GESTATION AND, Tumor Site: Type of Lesion: LIVER: CHOLANGIOCARCINOMA, PARENCHYMAL TUMORS); “active; positive” (Species: RAT, Strain/Sex: SPRAGUE-DAWLEY/MALE, Route: ORAL, Dose: 0, 333, 1000, 2000 PPM IN DIET FOR DURATION OF STUDY ADMINISTERED TO RATS EXPOSED TO THE SAME DOSES DURING GESTATION AND, Dose: 0, 333, 1000, 2000 PPM IN DIET FOR DURATION OF STUDY ADMINISTERED TO RATS EXPOSED TO THE SAME DOSES DURING GESTATION AND, Tumor Site: Type of Lesion: LIVER: CHOLANGIOCARCINOMA, PARENCHYMAL TUMORS).

`CCCCN(CCCCO)N=O`: the carcinogen call (Species: MOUSE, Strain/Sex: B6C3F1/MALE, Route: ORAL, Dose: 0, 0.05% IN DRINKING WATER FOR 12 WK (STUDY DURATION: 20 WK), Tumor Site: Type of Lesion: BLADDER: SQUAMOUS CELL CARCINOMA) is “active; positive”; the carcinogen call (Species: MOUSE, Strain/Sex: B6D2F1/FEMALE, Route: ORAL, Dose: 0, 523 MG/L IN DRINKING WATER FOR 13 WK (STUDY DURATION: 28 WK), Tumor Site: Type of Lesion: URINARY BLADDER: TUMOR) is “active; positive”; the carcinogen call (Species: MOUSE, Strain/Sex: B6D2F1/MALE, Route: ORAL, Dose: 0, 0.05% IN DRINKING WATER FOR 26 WK (STUDY DURATION: 26 WK), Tumor Site: Type of Lesion: URINARY BLADDER: TRANSITIONAL CELL CARCINOMA) is “active; positive”; the carcinogen call (Species: MOUSE, Strain/Sex: B6D2F1/MALE, Route: ORAL, Dose: 0, 5 MG TWICE/WK BY GAVAGE FOR 10 WK (STUDY DURATION: 30 WK), Tumor Site: Type of Lesion: URINARY BLADDER: TRANSITIONAL CELL CARCINOMA) is “active; positive”; the carcinogen call (Species: MOUSE, Strain/Sex: B6D2F1/MALE, Route: ORAL, Dose: 0, 523 MG/L IN DRINKING WATER FOR 13 WK (STUDY DURATION: 28 WK), Tumor Site: Type of Lesion: URINARY BLADDER: TUMOR) was “active; positive”; the carcinogen call (Species: MOUSE, Strain/Sex: DS/SHI/MALE, Route: ORAL, Dose: 0, 0.05% IN DRINKING WATER FOR 12 WK (STUDY DURATION: 20 WK), Tumor Site: Type of Lesion: BLADDER: TRANSITIONAL CELL CARCINOMA) is “active; positive”. For the same molecule, the carcinogen call is, setting by setting: (Species: MOUSE, Strain/Sex: NON/SHI/MALE, Route: ORAL, Dose: 0, 0.05% IN DRINKING WATER FOR 4 WK (STUDY DURATION: 36 WK), Tumor Site: Type of Lesion: KIDNEY: TRANSITIONAL CELL CARCINOMA PAPILLOMA, BLADDER: TRANSITIONAL CELL CARCINOMA) “active; positive”; (Species: MOUSE, Strain/Sex: NON/SHI/MALE, Route: ORAL, Dose: 0, 0.05% IN DRINKING WATER FOR 12 WK (STUDY DURATION: 20 WK), Tumor Site: Type of Lesion: KIDNEY: TRANSITIONAL CELL CARCINOMA, SQUAMOUS CELL CARCINOMA, BLADDER: TRANSITIONAL CELL CARCINOMA) “active; positive”; (Species: Mouse, Strain/Sex: Nrf2-/-, p53+/-, Nrf2-/-::p53+/-, and wild type, Route: Oral, Dose: 0.05% in drinking water for 8 wk, study duration 8 wk) “urinary bladder: carcinoma, 63.0% in nrf2-/- mice, 75.8% in p53+/- mice, 89.6% i”; (Species: RAT, Strain/Sex: ACI/MALE, Route: ORAL, Dose: 0, 0.05% IN DRINKING WATER FOR 4-24 WK, Tumor Site: Type of Lesion: URINARY BLADDER: PAPILLOMA, TRANSITIONAL CELL CARCINOMA, SQUAMOUS CELL CARCINOMA) “active; positive”; (Species: RAT, Strain/Sex: F344/MALE, Route: ORAL, Dose: 0, 0.05% IN DRINKING WATER FOR 10 WK (STUDY DURATION: 20 WK), Tumor Site: Type of Lesion: URINARY BLADDER: TRANSITIONAL CELL CARCINOMA) “active; positive”; (Species: RAT, Strain/Sex: F344/MALE, Route: ORAL, Dose: 0, 1, 5, 10, 50 PPM IN DRINKING WATER FOR 112 WK (STUDY DURATION: 112 WK), Dose: 0, 1, 5, 10, 50 PPM IN DRINKING WATER FOR 112 WK (STUDY DURATION: 112 WK), Tumor Site: Type of Lesion: BLADDER: CARCINOMA, PAPILLOMA) “active; positive”.

Regarding `c1ccc2c(c1)ccc1cc3ccc4c(c3nc12)[C@H]1O[C@H]1CC4`, the carcinogen call by setting is: (Species: MOUSE, Strain/Sex: CD-1/FEMALE, Route: INTRAPERITONEAL, Dose: 0, 28 NMOL (TOTAL DOSE) ADMINISTERED AS 1/7 OF DOSE WITHIN 24 HR AFTER BIRTH, 2/7 OF DOSE AT 8 D OLD, 4/7 OF DOSE AT 15, Tumor Site: Type of Lesion: LUNG: TUMOR) “active; positive”; (Species: MOUSE, Strain/Sex: CD-1/MALE, Route: INTRAPERITONEAL, Dose: 0, 28 NMOL (TOTAL DOSE) ADMINISTERED AS 1/7 OF DOSE WITHIN 24 HR AFTER BIRTH, 2/7 OF DOSE AT 8 D OLD, 4/7 OF DOSE AT 15, Tumor Site: Type of Lesion: LIVER: TUMOR, LUNG: TUMOR) “active; positive”.

Turning to `CCC(C)OC(=O)N1CCCCC1CCO` (configuration not stated), the carcinogen call is, setting by setting: (Species: MOUSE, Strain/Sex: CD-1/FEMALE, Route: DERMAL, Dose: 0, 50, 100, 200 MG/KG BW FOR 78 WK (STUDY DURATION: 78 WK), Dose: 0, 50, 100, 200 MG/KG BW FOR 78 WK (STUDY DURATION: 78 WK)) “inactive; negative”; (Species: MOUSE, Strain/Sex: CD-1/MALE, Route: DERMAL, Dose: 0, 50, 100, 200 MG/KG BW FOR 78 WK (STUDY DURATION: 78 WK), Dose: 0, 50, 100, 200 MG/KG BW FOR 78 WK (STUDY DURATION: 78 WK)) “inactive; negative”; (Species: RAT, Strain/Sex: SPRAGUE-DAWLEY/FEMALE, Route: DERMAL, Dose: 0, 50, 100, 200 MG/KG BW FOR 104 WK (STUDY DURATION: 104 WK), Dose: 0, 50, 100, 200 MG/KG BW FOR 104 WK (STUDY DURATION: 104 WK)) “inactive; negative”; (Species: RAT, Strain/Sex: SPRAGUE-DAWLEY/MALE, Route: DERMAL, Dose: 0, 50, 100, 200 MG/KG BW FOR 104 WK (STUDY DURATION: 104 WK), Dose: 0, 50, 100, 200 MG/KG BW FOR 104 WK (STUDY DURATION: 104 WK)) “inactive; negative”.
